Experimental data from patent publication US12268700B2, “3-o-sulfo-galactosylceramide analogs as activators of type II NKT cells and uses thereof” (The United States of America, as represented by the …, priority 2018, dated 2025).
Entries after “also recorded” stand apart in the source; their conditions may differ.

Key:
[1] = test system: CT26 (colon cancer) cells; conditions: murine model of lung metastasis; Ambrosino et al. 2007; cited from earlier work
[2] = test system: XV19 type II NKT hybridoma; test: In vitro stimulation of type II NKT hybridoma with lipid-loaded plate-coated CD1d monomers, IL-2 ELISA; assay type: cell-based, mouse; conditions: 24 h, 0.5 μg plate-coated CD1d monomers loaded with 4 μM sulfatide or analogues, 10 nM α-GalCer or β-GalCer
Method: The hybridoma XV19 was created by Cardell, S. et al. (J. Experimental Medicine, 182: 993-1004 (1995)) and was provided by Susanna Cardell.
(§1) CD monomers were loaded as described above. Flat bottom 96 well plates were coated overnight with 0.5 μg of CD1d monomers loaded with 4 μM of sulfatide or sulfatide-analogues, 10 nM of α-GalCer or with 10 ng/ml of anti-CD3 antibody (Biolegend, San Diego, CA) dissolved in PBS. Plates were then washed in PBS and complete medium. 50×10^3 hybridoma cells in 200 μl of complete medium were plated in presence or not of anti-CD1d blocking antibody 20H2.
(§2) Cells were cultured for 24 h at 37° C., 5% CO2. The production of IL-2 was measured by ELISA from the culture supernatant according to the recommendations of the manufacturer.
(§3) Therefore, well-described type I and type II NKT hybridoma cell lines were used in this experiment. The type I NKT hybridoma DN32.D3 expresses the murine semi-invariant TCR Vα14Jα18 associated with the Vβ8.2/Jβ2.4 chain (Brutkiewicz et al.) and is specific for α-GalCer.

[3] = test system: DN32.D3 type I NKT hybridoma; test: In vitro stimulation of type I NKT hybridoma with lipid-loaded plate-coated CD1d monomers, IL-2 ELISA; assay type: cell-based, murine; conditions: 24 h; for DN32 activation (IL-2 production): 0.5 μg plate-coated CD1d monomers loaded with 4 μM sulfatide or analogues, 10 nM α-GalCer or β-GalCer; for level of activation (amount of IL-2 produced) of DN32.D3, compared with reference lipids: CD1d monomers loaded with 4 μM lipid
Method: The hybridoma cell line DN32.D3 created by Brutkiewicz et al. (R. R. Brutkiewicz et al., J. Experimental Medicine, 183: 1913-1919 (1995)) that express the TCR semi-invariant α-chain Vα14Jα18 associated with the Vβ8.2Jβ2.4 chain was used.
as §1, §2, §3

[4] = test system: CT26 (colon cancer) cells; test: CT26 lung metastasis model, lung nodule count; assay type: in vivo, BALB/c mice; conditions: for number of lung nodules: same day 33 nmol sulfatide or analogues or 500 pmol α-GalCer i.p., counted 8 to 12 days, compared to vehicle, FIG. 5
Method: 200 μg of sulfatide of sulfatide-analogues dry powder were resuspended with 40 μl of PBS-Tween20-0.05% and warm at 37° C. for 10 min. Then, 697 μl of DPBS were added to obtain a concentration of 300 μg/ml of lipid. Mice received an i.p injection of 100 μl of sulfatide or analogue mix that is equivalent to […] of lipid. A solution of 500 μM of α-GalCer in DPBS-tween20-0.05% was thawed and sonicated at 60° C. for 2 min and a solution at 10 μM was prepared in DPBS. Mice were injected i.p. with […] (100 μl) of α-GalCer solution.
The CT26 cell were cultured in tumor medium: RPMI 1640 (Life technologies) supplemented with 10% heat inactivated fetal calf serum, 2 mM L-Glutamine, penicillin, streptomycin, 10 mM HEPES, 1/100 vol non-essential amino acids, and 1 mM sodium pyruvate 1/1000 of β-mercaptoethanol. Cells were harvested at 80-85% confluence, detached from plastic with trypsin treatment and resuspended at 5×10^6 cell/ml in DPBS. Mice were injected i.v in the tail vein with 0.5×10^6 CT26 cells (100 μl). The same day, mice were injected i.p. with […] of sulfatide or sulfatide analogues, or 10 nmol of α-GalCer.
WT BALB/c mice were injected intravenously (i.v.) with 0.5×10^6 CT26 (colon cancer) and treated the same day with 33 nmol of sulfatide or sulfatide-analogues or 500 pmol of α-GalCer injected i.p. Lung nodules were counted 8 to 12 days after tumor inoculation according to the results in the monitoring mice. n=10 from 2 independent experiments. The results are shown graphically in FIG. 5.
WT BALB/c mice were inoculated i.v. with 5×10^5 CT26 cells and treated i.p. with 30, 5 or 0.5 nmol of sulfatide or C24:2. The number of nodules in the lung was determined 8 to 12 days after injection.
WT BALB/c mice were injected i.v. with 0.5×10^6 CT26 (colon cancer cells) and treated the same day with […] of sulfatide or C24:2 or 500 pmol of α-GalCer injected i.p. Mice were injected i.p with 200 μg/ml of anti-IFNγ or rat IgG isotype control on day 0, day 1, day 2, day 3, and day 5. Lung nodules were counted 8 to 12 days after tumor inoculation according to the results in the monitoring mice. The results are shown in FIG. 8A (Rat IgG) and FIG. 8B (anti-IFN-γ).

lung mononuclear cells = test: Ex vivo stimulation of lung mononuclear cells with lipid-pulsed BMDC, IL-13 ELISA; assay type: cell-based, BALB/c mice; conditions: BMDC pulsed with 33 μM lipid, 4 days, FIG. 3; for production of IL-13: ELISA of culture supernatant
Method: For the preparation of lung mononuclear cells, lungs were perfused with warm Dulbecco's Phosphate-Buffered Saline (DPBS) (Life Technologies, Frederick, MD) from the heart right ventricle. Single cell suspension was prepared with a Lung Dissociation Kit (Miltenyi Biotec, San Diego, CA) according to the manufacturer's protocol. Lung mononuclear cells (LMNC) were then purified from the cell suspension by a 40%/80% gradient of Percoll (Sigma-Aldrich, St-Louis, MO).
BMDC were prepared by collecting bone marrow cells from femurs and tibias of BALB/c mice in complete medium. Cells were suspended at the concentration of 0.2×10^6/ml in complete medium supplemented with 20 ng/ml of GM-CSF (Peprotech, Rocky Hill, NJ) and 2×10^6 cells were plated per Petri dish (Corning, Tewksbury, MA). Fresh medium supplemented with 20 ng/ml GM-CSF was added at day 3 and refreshed at day 6. At day 8 the cells were harvested, washed in complete medium and suspended at 0.4×10^6/ml in complete medium supplemented with 10 ng/ml of GM-CSF and 1 μg/ml of LPS (Sigma-Aldrich). 4×10^6 cells were plated per Petri dish for 24 h.
200 μg of sulfatide of sulfatide-analogues dry powder was dissolved in 100 μl of DPBS containing 0.5% Tween20 (PBS-Tween) (Avantor performance materials). BMDCs were washed and put at the concentration of 1×10^7/ml and incubated 3 h at 37° C. in presence of 30 μg/ml of sulfatide or sulfatide-analogues or the same volume of PBS-Tween as vehicle control. After washing, 100×10^3 pulsed BMDCs were cultured with 0.5×10^6 lung mononuclear cells in complete medium in flat-bottom 96 well plates for 4 days at 37° C., 5% CO2. When indicated, 10 μg/ml of anti-CD1d antibody (20H2, Harlan, Indianapolis, IN) was added. Supernatants were harvested, and IL-13 production was determined by ELISA according to the recommendations of the manufacturer (eBioscience).
Lung mononuclear cells from WT BALB/c mice were stimulated for 4 days in presence of BMDC (bone marrow derived dendritic cells) pulsed with 33 μM of sulfatide, vehicle control, or 33 μM of the sulfatide analogues pC24:1, pC24:2, or C24:2 in presence or absence of the anti-CD1d blocking antibody 20H2 to confirm the dependency of the IL-13 production on CD1d. The production of IL-13 was measured by ELISA in the culture supernatant. The results are shown in FIG. 3 (n=4, duplicates from 2 independent experiments.

IFN-γ = test: Serum cytokine production after i.p. lipid injection (multiplex analysis); assay type: in vivo, mice; conditions: bled 3, 6, 12 and 24 h, FIG. 7
Method: Mice were injected i.p. with lipids and bled 3, 6, 12 and 24 h after injection. The cytokine production in the serum was determined by multiplex analysis.

Row | Molecule | development of lung nodules (previously demonstrated) [1] | XV19 activation (IL-2 production) [2] | DN32 activation (IL-2 production) [3] | number of lung nodules ([4]; 0.5×10^6 CT26 i.v.) | production of IL-13 (lung mononuclear cells) | production of IL-13 in presence of anti-CD1d blocking antibody 20H2 (lung mononuclear cells) | level of activation (amount of IL-2 produced) of DN32.D3, compared with reference lipids [3] | production of IFN-γ in the serum (IFN-γ) | protection from tumor nodules with anti-IFN-γ versus rat IgG isotype control ([4]; 0.5×10^6 CT26 i.v., 30 μmol i.p., anti-IFNγ or rat IgG i.p. on days 0, 1, 2, 3, 5, FIGS. 8A-8B) | reduction of tumor nodules, dose study ([4]; 5×10^5 CT26 i.v., 30, 5 or 0.5 nmol i.p., result stated for 5 nmol, FIG. 6)
1 | CCCCCCCC/C=C\CCCCCCCCCCCCCC(=O)N[C@@H](CO[C@H]1O[C@H](CO)[C@H](O)[C@H](OS(=O)(=O)O)[C@H]1O)[C@H](O)/C=C/CCCCCCCCCCCCC [Sulfatide C24:1, 3-o-sulfo-α-galactosylceramide, d18:1/C24:1, reference compound] | increased the development of nodules | activated | not | increased the number of lung nodules | – | – | – | – | – | –
2 | CCCCC/C=C\C/C=C\CCCCCCCCCCCCCC(=O)N[C@@H](CO[C@@H]1O[C@H](CO)[C@H](O)[C@H](OS(=O)(=O)O)[C@H]1O)[C@H](O)[C@H](O)CCCCCCCCCCCCCC [pC24:2, (2S,3S,4R)-1-(3-O-Sodiumsulfonyl-β-D-galactopyranosyloxy)-2-(N-15Z,18Z-tetracosadienoylamino)octadecan-3,4-diol] | – | activated XV19 | also activated DN32.D3 | did not have any effect | induced a high production of IL-13 | abrogated | lower than that induced by α-GalCer and in the same range as the one induced by β-GalCer | – | – | –
3 | CCCCCCCCCCCCCCCCCCCCCCCCCC(=O)N[C@@H](CO[C@H]1O[C@H](CO)[C@H](O)[C@H](O)[C@H]1O)[C@H](O)[C@H](O)CCCCCCCCCCCCCC [α-GalCer, α-galactosylceramide, reference compound] | abrogated it | not | activated | inhibited their development | – | – | – | – | – | –
4 | CCCCC/C=C\C/C=C\CCCCCCCCCCCCCC(=O)N[C@@H](CO[C@@H]1O[C@H](CO)[C@H](O)[C@H](OS(=O)(=O)O)[C@H]1O)[C@H](O)/C=C/CCCCCCCCCCCCC [C24:2, (2S,3R,4E)-1-(3-O-Sodiumsulfonyl-β-D-galactopyranosyloxy)-2-(N-15Z,18Z-tetracosadienoylamino)octadec-4-en-3-ol] | – | activated only XV19; also recorded: activated only type II NKT cells | not DN32.D3; also recorded: not type I | significantly reduced the number of lung nodules; also recorded: induced a significant reduction of the number of lung nodules | induced a high production of IL-13 | abrogated | – | induced a high production of IFN-γ | dependent on IFN-γ | efficient for the reduction of tumor nodules
5 | (2S,3S,4R)-1-(3-O-Sodiumsulfonyl-β-D-galactopyranosyloxy)-2-(N-15Z-tetracosenoylamino)octadecane-3,4-diol [pC24:1] | – | activated XV19 | also activated DN32.D3 | did not have any effect | induced a high production of IL-13 | abrogated | lower than that induced by α-GalCer and in the same range as the one induced by β-GalCer | – | – | –
6 | β-galactosylceramide [β-GalCer, reference compound] | – | not | activated | – | – | – | – | – | – | –
